Results published in ChEMBL document CHEMBL4834424, “Targeting Chikungunya Virus Replication by Benzoannulene Inhibitors” (J Med Chem, 2021).
Activity calls are given as the source filed them. The calls are words filed in the database; no cut-off is given here.

Columns and labels:
Onyong-nyong virus = experiment: (§1) Antiviral activity against O'nyong-nyong virus infected in Asian tiger mosquito C6/36 cells assessed as reduction in virus titer in cell supernatant by measuring inhibition of plaque formation using Vero cells and measured following infection of supernatants with Vero cells for 48 hrs pi by serial dilution plaque based methylene blue dye analysis; type: functional
[1] = Cytotoxicity against HEK293 cells at 10 uM; type: cell-based; settings: human
Chikungunya virus [2] = experiment: (§2) Antiviral activity against CHIKV infected in C57BL/6 mouse right foot assessed as reduction in quadriceps tissue at 80 mg/kg, po pretreated 2 hrs before infection followed treated twice a day for 3 days and measured 12 hr post infection of last dose by dilution plaque assay on Vero cells; type: functional, organism-based; settings: time 86.0 hrs
[3] = system: Venezuelan equine encephalitis virus; experiment: (§3) Antiviral activity against Venezuelan equine encephalitis virus TC83 infected in Asian tiger mosquito C6/36 cells assessed as reduction in virus titer in cell supernatant by measuring inhibition of plaque formation using Vero cells and measured following infection of supernatants with Vero cells for 48 hrs pi by serial dilution plaque based methylene blue dye analysis; type: functional
Chikungunya virus [4] = experiment: as §1, with “CHIKV 37997” for “O'nyong-nyong virus”; type: functional; settings: Chikungunya virus, 37997, C6
Chikungunya virus [5] = experiment: (§4) Antiviral activity against CHIKV infected in human NHDF cells assessed as reduction in virus titer in cell supernatant by measuring inhibition of plaque formation using Vero cells pretreated with NHDF cells followed by infected with virus incubated for 24 hrs and measured following infection of supernatants with Vero cells for 48 hrs by plaque based methylene blue dye analysis; type: functional, organism-based
[6] = as §1, with “Ross river” for “O'nyong-nyong”; type: functional; settings: La Crosse virus
[7] = Half life in C57BL/6 mouse at 1 mg/kg, iv; type: ADME, organism-based; settings: in vivo
[8] = Octanol-aqueous buffer distribution coefficient, log D of the compound by LC-MS analysis; type: physicochemical
[9] = Cmax in C57BL/6 mouse at 40 mg/kg, sc; type: ADME, organism-based; design: route subcutaneous, dose 40 mg/kg; settings: in vivo
[10] = AUC in C57BL/6 mouse at 40 mg/kg, sc; type: ADME, organism-based; design: dose 40 mg/kg; settings: in vivo
dengue virus type 2 = experiment: as §1, with “DENV2” for “O'nyong-nyong virus”, “HEK293” for “Asian tiger mosquito C6/36”, “at 10 uM” for “and”; type: functional
[11] = Half life in C57BL/6 mouse at 40 mg/kg, sc; type: ADME, organism-based; settings: in vivo
Mayaro virus = experiment: Antiviral activity against Mayaro virus TRVL infected in Asian tiger mosquito C6/36 cells assessed as reduction in virus titer in cell supernatant by measuring inhibition of plaque formation using Vero cells and measured following infection of supernatants with Vero cells for 48 hrs pi by serial dilution plaque based methylene blue dye analysis; type: functional
[12] = target: Dihydroorotate dehydrogenase (quinone), mitochondrial (Homo sapiens, UniProt Q02127)
West Nile virus = experiment: as §1, with “West nile” for “O'nyong-nyong”, “HEK293” for “Asian tiger mosquito C6/36”, “at 10 uM” for “and”; type: functional
[13] = Half life in C57BL/6 mouse at 40 mg/kg, ip; type: ADME, organism-based; settings: in vivo
Una virus = experiment: Antiviral activity against Una virus MAC150 infected in Asian tiger mosquito C6/36 cells assessed as reduction in virus titer in cell supernatant by measuring inhibition of plaque formation using Vero cells and measured following infection of supernatants with Vero cells for 48 hrs pi by serial dilution plaque based methylene blue dye analysis; type: functional
[14] = Bioavailability in C57BL/6 mouse at 40 mg/kg, ip; type: ADME, organism-based; settings: in vivo
Chikungunya virus [15] = experiment: as §4, with “Vero cells at 10 uM pretreated with” for “Vero cells pretreated with”; type: functional; settings: time 72 hrs
Chikungunya virus [16] = experiment: as §1, with “CHIKV 99659” for “O'nyong-nyong virus”; type: functional; settings: Chikungunya virus, 99659, C6
Chikungunya virus [17] = experiment: as §2, with “serum of contralateral ankles” for “quadriceps”; type: functional, organism-based; settings: time 86.0 hrs
[18] = system: Venezuelan equine encephalitis virus; experiment: as §3, with “human […]” for “Asian tiger mosquito C6/36”, “at 10 uM” for “and”; type: functional, NHDF
[19] = Aqueous solubility of the compound; type: physicochemical; settings: aqueous; read-out: solubility
[20] = Toxicity in CHIKV infected in C57BL/6 mouse right foot assessed as body weight change at 80 mg/kg, po pretreated 2 hrs before infection followed treated twice a day for 3 days and measured 12 hr post infection of last dose; type: organism-based; settings: in vivo, 86 h
[21] = AUC in C57BL/6 mouse at 40 mg/kg, ip; type: ADME, organism-based; design: dose 40 mg/kg; settings: in vivo
[22] = Bioavailability in C57BL/6 mouse at 40 mg/kg, sc; type: ADME, organism-based; settings: in vivo
Chikungunya virus [23] = experiment: Antiviral activity against CHIKV infected in C57BL/6 mouse right foot assessed as reduction in spleen at 80 mg/kg, po pretreated 2 hrs before infection followed treated twice a day for 3 days and measured 12 hr post infection of last dose by dilution plaque assay on Vero cells; type: functional, organism-based; settings: time 86.0 hrs
[24] = Cmax in C57BL/6 mouse at 40 mg/kg, ip; type: ADME, organism-based; design: route intraperitoneal, dose 40 mg/kg; settings: in vivo
[25] = AUC in C57BL/6 mouse at 40 mg/kg, po; type: ADME, organism-based; design: dose 40 mg/kg; settings: in vivo
Chikungunya virus [26] = experiment: Antiviral activity against CHIKV-nLuc RNA transfected NHDF cells assessed as decrease in Nano-luc signal at 20 uM pretreated 24 hrs before transfection in presence of uridine measured after 24 hrs by Nano-Glo luciferase assay; type: functional, organism-based; settings: time 48.0 hrs
[27] = Half life in C57BL/6 mouse at 40 mg/kg, po; type: ADME, organism-based; settings: in vivo
Chikungunya virus [28] = experiment: Antiviral activity against CHIKV infected in C57BL/6 mouse right foot assessed as reduction in serum of ipsilateral tissue at 80 mg/kg, po pretreated 2 hrs before infection followed treated twice a day for 3 days and measured 12 hr post infection of last dose by dilution plaque assay on Vero cells; type: functional, organism-based; settings: time 86.0 hrs
Chikungunya virus [29] = type: functional; settings: 181-25, C6, time 48 hrs
Chikungunya virus [30] = experiment: Antiviral activity against CHIKV infected in C57BL/6 mouse right foot assessed as reduction in site of infection at 80 mg/kg, po pretreated 2 hrs before infection followed treated twice a day for 3 days and measured 12 hr post infection of last dose by dilution plaque assay on Vero cells; type: functional, organism-based; settings: time 86.0 hrs
Chikungunya virus [31] = experiment: Antiviral activity against CHIKV-nLuc RNA transfected NHDF cells assessed as decrease in Nano-luc signal at 20 uM pretreated 24 hrs before transfection in presence of guanosine measured after 24 hrs by Nano-Glo luciferase assay; type: functional, organism-based
[32] = AUC in C57BL/6 mouse at 1 mg/kg, iv; type: ADME, organism-based; design: dose 1 mg/kg; settings: in vivo
[33] = (§5) Cytotoxicity against human NHDF cells assessed as cell viability measured after 24 hrs by Cell Titer Glo luminescent assay; type: cell-based; settings: NHDF cells
[34] = Oral bioavailability in C57BL/6 mouse at 40 mg/kg; type: ADME, organism-based; settings: in vivo
[35] = Metabolic stability in human liver microsomes assessed as half life in presence of NADPH incubated up to 45 mins by LC-MS/MS analysis; type: ADME, Microsome
[36] = Cmax in C57BL/6 mouse at 40 mg/kg, po; type: ADME, organism-based; design: route oral, dose 40 mg/kg; settings: in vivo
Chikungunya virus [37] = experiment: Antiviral activity against resistance mutation induced CHIKV-117/119 infected in […] cells assessed as viral infectivity in Vero cells at 10 uM measured up to 24 hrs of post infection by supernatant was quantified by plaque assay; type: functional, organism-based; settings: time hrs <=24
Chikungunya virus [38] = type: functional, organism-based; settings: 181-25, NHDF, dose 20.0 µM, time 13.0 hrs
Chikungunya virus [39] = experiment: Antiviral activity against CHIKV-nLuc RNA transfected NHDF cells assessed as decrease in CHIKV RNA at 10 uM pretreated 1 hr before transfection measured after 12 hrs by Nano-Glo luciferase assay; type: functional, organism-based; settings: time 13.0 hrs
Chikungunya virus [40] = experiment: Antiviral activity against resistance mutation induced CHIKV-119 infected in […] cells assessed as viral infectivity in Vero cells at 10 uM measured up to 24 hrs of post infection by supernatant was quantified by plaque assay; type: functional, organism-based; settings: time hrs <=24
Chikungunya virus [41] = type: functional, organism-based; settings: 181-25, NHDF, dose 20.0 µM, time 13.0 hrs; remark: listed apart in the source
Chikungunya virus [42] = type: functional, organism-based; settings: 181-25, NIH3T3, dose 10.0 µM
Chikungunya virus [43] = experiment: as §4, with “mouse NIH3T3” for “human NHDF”, “NIH3T3” for “NHDF”; type: functional; settings: dose 10 µM
Chikungunya virus [44] = experiment: Antiviral activity against CHIKV infected in IFN regulatory factor 3 telomerized human fibroblast cells assessed as reduction in virus titer in cell supernatant by measuring inhibition of plaque formation using Vero cells […] followed by infected with virus incubated for 24 hrs and measured following infection of supernatants with Vero cells for 48 hrs by plaque based …; type: functional; settings: time 72 hrs
Chikungunya virus [45] = experiment: Antiviral activity against resistance mutation induced CHIKV-117 infected in […] cells assessed as viral infectivity in Vero cells at 10 uM measured up to 24 hrs of post infection by supernatant was quantified by plaque assay; type: functional, organism-based; settings: time hrs <=24
NHDF = experiment: as §5; type: cell-based; settings: nhdf, 24 h
Chikungunya virus [46] = experiment: Antiviral activity against wild type CHIKV-117 infected in […] cells assessed as viral infectivity in Vero cells at 10 uM measured up to 24 hrs of post infection by supernatant was quantified by plaque assay; type: functional; settings: time hrs <=24
Chikungunya virus [47] = experiment: as §1, with “CHIKV LR2006-OPY1” for “O'nyong-nyong virus”; type: functional

Chain of Dihydroorotate dehydrogenase (quinone), mitochondrial (Q02127 whole entry): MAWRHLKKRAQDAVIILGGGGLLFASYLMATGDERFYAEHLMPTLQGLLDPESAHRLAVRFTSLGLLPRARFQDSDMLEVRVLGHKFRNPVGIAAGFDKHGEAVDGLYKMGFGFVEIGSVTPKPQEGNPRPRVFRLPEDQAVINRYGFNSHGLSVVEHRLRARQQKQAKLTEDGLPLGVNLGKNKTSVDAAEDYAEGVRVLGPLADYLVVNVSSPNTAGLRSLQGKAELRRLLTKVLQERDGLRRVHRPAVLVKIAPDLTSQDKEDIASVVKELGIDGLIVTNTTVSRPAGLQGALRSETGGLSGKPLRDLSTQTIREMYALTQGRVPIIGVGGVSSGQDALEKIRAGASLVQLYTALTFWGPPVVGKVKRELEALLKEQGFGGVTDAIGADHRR

## COc1cc2c(cc1C(=O)Nc1ccc(C(C)(C)C#N)cc1)CCCCC2
Onyong-nyong virus
  EC90: 0.89 µM
[1]
  CC50: > 30 µM
Chikungunya virus [2]
  Activity: Active
[3]
  EC90: 2.1 µM
Chikungunya virus [4]
  EC90: 1.5 µM
Chikungunya virus [5]
  EC50: 0.27 µM
[6]
  EC90: 0.85 µM
[7]
  half-life: 2.02 h
[8]
  logD: > 4.4
[9]
  Cmax: 90 ng/mL
[10]
  AUC: 744 ng·h/mL
Dengue virus type 2
  log(activity): 2
[11]
  half-life: 18.6 h
Mayaro virus
  EC90: 2.3 µM
[12]
  IC50: 0.31 µM
West Nile virus
  log(activity): 3.4
[13]
  half-life: 18.5 h
Una virus
  EC90: 2.5 µM
[14]
  bioavailability: 43%
Chikungunya virus [15]
  log(activity): 4.5
Chikungunya virus [16]
  EC90: 1.1 µM
Chikungunya virus [17]
  Activity: inactive
[18]
  log(activity): 3.1
[19]
  solubility: < 1 µM
[20]
  Activity: Non-Toxic
[21]
  AUC: 8570 ng·h/mL
[22]
  bioavailability: 4%
Chikungunya virus [23]
  Activity: Active
[24]
  Cmax: 858 ng/mL
[25]
  AUC: 7950 ng·h/mL
Chikungunya virus [26]
  Activity: inactive
[27]
  half-life: 9.9 h
Chikungunya virus [28]
  Activity: inactive
Chikungunya virus [29]
  EC90: 0.98 µM
Chikungunya virus [30]
  Activity: inactive
Chikungunya virus [31]
  Activity: Active
[32]
  AUC: 497 ng·h/mL
[33]
  CC50 at 24 h: > 30 µM
[34]
  bioavailability: 41%
[35]
  half-life: 132 h
[36]
  Cmax: 642 ng/mL

## COc1cc2c(cc1NC(=O)c1ccc(C(C)(C)C)cc1)CCCC2
Onyong-nyong virus
  EC90: 0.3 µM
Chikungunya virus [37]
  Activity: Active
[3]
  EC90: 2.1 µM
Chikungunya virus [4]
  EC90: 3.39 µM
Chikungunya virus [5]
  EC50: 1.45 µM
[6]
  EC90: 0.32 µM
Chikungunya virus [38]
  inhibition: Active
Mayaro virus
  EC90: 5.1 µM
Chikungunya virus [39]
  inhibition: Active
[12]
  IC50: 5 µM
Chikungunya virus [40]
  Activity: Active
Chikungunya virus [15]
  log(activity): 2.5
Chikungunya virus [16]
  EC90: 1 µM
Chikungunya virus [41]
  inhibition: Active
Chikungunya virus [42]
  Activity: Active
Chikungunya virus [43]
  EC90: 3.16 µM
Chikungunya virus [44]
  EC90: 1.03 µM
Chikungunya virus [26]
  Activity: inactive
Chikungunya virus [45]
  Activity: Active
Chikungunya virus [29]
  EC90: 1.45 µM
Chikungunya virus [31]
  Activity: Active
NHDF
  CC50: 169 µM
Chikungunya virus [46]
  log(activity): 1.5
Chikungunya virus [47]
  EC90: 0.4 µM
